# Source: article PMC10630959, “Dissimilar Effect of P-Glycoprotein and Breast Cancer Resistance Protein Inhibition on the Distribution of Erlotinib to the Retina and Brain in Humans and Mice” (Molecular Pharmaceutics, 2023)
# “Also recorded” adds a separate entry of the source. Read-outs that look alike come from different tables or passages of the source.
# Columns and labels:
# [1] = system: P-gp and BCRP at the mouse BBB
# [2] = system: P-gp and BCRP at the mouse BRB
# [3] = system: P-gp and BCRP at the human BRB and BBB; set-up: method as in PMID 34220523; conditions: cited from earlier work
# [4] = system: P-gp and BCRP at the human blood–brain barrier (BBB); experiment: [^11C]erlotinib PET, distribution to human whole brain gray matter, baseline vs P-gp and/or BCRP inhibition
# Protocol: (§4) Medication-free male (n = 20) and female (n = 2) subjects, who were judged to be healthy based on the screening examinations (past medical history, physical examination, blood and urine tests), were enrolled into the study and allocated to the tariquidar (n = 5) or erlotinib group (n = 17).
# (§5) The second scan was performed on the same day for the tariquidar group or on a separate day for the erlotinib group. […] The total administered dose of tariquidar was of 5.6 ± 0.6 mg/kg body weight. For the erlotinib group (n = 17), the second PET scan was acquired approximately 3 h after oral intake of 300 mg (n = 7), 650 mg (n = 8), or 1000 mg (n = 2) of erlotinib (Tarceva; Roche Pharma, 50 and 150 mg tablets).[22] […] In addition to the PET scans, magnetic resonance imaging (MRI) of the head (T1-weighted; Magnetom Skyra 3.0-T MRI, Siemens Medical Solutions) was performed on all participants.
# (§6) As described previously,[22] serial arterial blood samples were collected during the two PET imaging sessions in both groups. Venous blood samples were collected at baseline and hourly for 8 h and at approximately 21 h after oral erlotinib intake for determination of erlotinib plasma concentrations. A gamma counter, which was cross-calibrated with the PET camera, was used to determine the radioactivity concentrations in blood and plasma aliquots.
# (§7) Volume of interest (VOI) analysis was conducted for the retina on MR-to-PET coregistered images using PMOD software (version 3.6; PMOD Technologies Ltd., Zürich, Switzerland). The retina VOI was outlined in a way to avoid spillover of radioactivity from adjacent anatomic structures (e.g., major blood vessels). The volume of the retina VOI was in the range of 0.8–0.9 cm^3. None of the dimensions of the retina VOIs were much smaller than 2 times the full width at half-maximum (2 × 4.36 mm) of the employed PET scanner, meaning that partial volume effects causing an underestimation of the true radiotracer concentration in the VOI were negligible. […] Time-activity curves (TACs) were extracted from the coregistered dynamic PET images and normalized to injected radioactivity amount per body weight and expressed in units of standardized uptake value (SUV). The area under the TACs in plasma (AUCplasma), the retina (AUCretina) and the brain (AUCbrain), from 0 to 60 min after radiotracer injection, was determined with Prism 9.5.0 software (GraphPad Software, La Jolla, CA, USA).
# [5] = system: P-gp at the human BRB; set-up: method as in PMID 27738009; conditions: i.v. tariquidar co-infusion; cited from earlier work
# [6] = system: P-gp and BCRP at the human blood–retina barrier (BRB); experiment: [^11C]erlotinib PET, distribution to the human retina, baseline vs P-gp and/or BCRP inhibition; format: in vivo
# Protocol: as §4, §5, §6, §7
# [7] = system: P-gp at the BBB; set-up: method as in PMID 25669913; conditions: human; i.v. tariquidar co-infusion protocol; cited from earlier work
# [8] = set-up: method as in PMID 26940368, PMID 30237210; conditions: under the PET inhibition protocols; cited from earlier work
# [9] = set-up: method as in PMID 25165131; conditions: cited from earlier work
# [10] = system: OCTs, OCTNs and OATPs at the mouse BBB; experiment: [^3H]erlotinib in situ carotid perfusion, brain transport with SLC transporter inhibitors; format: in vivo; conditions: 100 μM fexofenadine, 5 mM TEA, 100 μM estrone-3-sulfate, 0.5 mM ergothioneine, 5 mM L-carnitine
# Protocol: (§1) Transport of [^3H]erlotinib at the luminal BRB and BBB was measured by in situ carotid perfusion.[11],[25] With this method, the vascular composition of the brain and the eye is completely substituted by an artificial fluid, whose constitution can be modified. The perfusion fluid for the in situ carotid perfusion consisted of Krebs carbonate-buffered physiological saline with 128 mM NaCl, 24 mM NaHCO3, 4.2 mM KCl, 2.4 mM NaH2PO4, 1.5 mM CaCl2, 0.9 mM MgSO4, and 9 mM D-glucose, warmed to 37 °C and gassed with 95% O2/5% CO2 to adjust the pH to 7.40. The pH of the perfusion fluid was checked and adjusted with a digital pH meter (±0.05 pH units) immediately before perfusion. Tissue accumulation of [^3H]erlotinib was measured under trans-influx zero to determine the kinetic conditions required to measure transport solely across the membrane, separating the sucrose (vascular) from the nonsucrose (tissue parenchyma) space. […] The first membrane (luminal/vascular) delimiting the sucrose space is the only kinetic interface that affects the distribution parameters of [^3H]erlotinib.
# (§2) Mice were anesthetized with ketamine and xylazine (140 and 8 mg/kg, intraperitoneal), and a catheter was inserted into the right carotid artery after ligation of the appropriate vessels. Just before perfusion, the heart was cut. Perfusion started immediately at a constant flow rate of 2.5 mL/min. […] Perfusion was terminated by decapitating the mouse after 60 s. The right eye (without the optic nerve) and the right cerebral hemisphere were removed from the skull and dissected on a freezer pack. The tissues and aliquots of perfusion fluid were weighted, digested (Solvable; PerkinElmer), and mixed with Ultima-gold XR (PerkinElmer). Dual-label counting was carried out in a Tri-Carb 2810TR instrument (PerkinElmer) to measure radioactivity (disintegrations per minute, dpm). […] Therefore, radioactivity in the whole eye was assumed to represent only the posterior segment of the eye, which comprises the retina.
# (§3) Calculations were performed as described previously.[11],[25] The initial transport rate, also called brain-eye clearance, expressed as Kin (μL/s/g) was selected as the main outcome parameter. The brain and eye tissue “vascular” volume (Vv; μL/g) was estimated by using the [^14C]sucrose distribution volume. The data for any mouse for which Vv was different from the normal values[25] were excluded from the analysis.
# [11] = system: OCTs, OCTNs and OATPs at the mouse BRB; experiment: [^3H]erlotinib in situ carotid perfusion, retina transport with SLC transporter inhibitors; format: in vivo; conditions: 100 μM fexofenadine, 5 mM TEA, 100 μM estrone-3-sulfate, 0.5 mM ergothioneine, 5 mM L-carnitine
# Protocol: as §1, §2, §3
# [12] = system: healthy volunteers; set-up: method as in PMID 30237210; conditions: oral 1000 mg dose group; precluded inclusion of additional subjects; cited from earlier work
# [13] = co-perfusion with 10 μM inhibitor
# [14] = co-perfusion with 20 μM inhibitor
# [15] = i.v. tariquidar infusion, p ≤ 0.05
# [16] = all combined oral erlotinib doses, p ≤ 0.001
# [17] = all combined oral erlotinib dose groups, p ≤ 0.001
# [18] = oral erlotinib 300 mg, p ≤ 0.05
# [19] = oral erlotinib 650 mg, p ≤ 0.05
compound,measurement,setting,value
C/C=C/C[C@@H](C)C(=O)[C@H]1C(=O)N[C@@H](C(C)C)C(=O)N(C)CC(=O)N(C)[C@@H](CC(C)C)C(=O)N[C@@H](C(C)C)C(=O)N(C)[C@@H](CC(C)C)C(=O)N[C@@H](C)C(=O)N[C@H](C)C(=O)N(C)[C@@H](CC(C)C)C(=O)N(C)[C@@H](CC(C)C)C(=O)N(C)[C@@H](C(C)C)C(=O)N1C [valspodar],change in Kin of [^3H]erlotinib vs baseline,[1]; [13],+120%
[^3H]erlotinib,Kin at the mouse BRB relative to the BBB,"[2]; mouse, in vivo",approximately 2 times
COc1cc2c(cc1OC)CN(CCc1ccc(NC(=O)c3cc(OC)c(OC)cc3NC(=O)c3cnc4ccccc4c3)cc1)CC2 [[^11C]tariquidar],baseline distribution (VT) in the human retina relative to the human brain,[3],4–5 times
COc1cc2c(cc1OC)CN(CCc1ccc(NC(=O)c3cc(OC)c(OC)cc3NC(=O)c3cnc4ccccc4c3)cc1)CC2 [tariquidar],change in Kin of [^3H]erlotinib vs baseline,[1]; [13],+270%
same,change in Kin of [^3H]erlotinib vs baseline,[1]; [14],+280%
same,change in AUCR of [^11C]erlotinib vs baseline scan,[4]; i.v. tariquidar infusion,no significant changes
same,change in VT of [^11C]erlotinib vs baseline scan,[4]; i.v. tariquidar infusion,did not result in any significant changes; also recorded: no significant changes
same,increase in retinal VT of (R)-[^11C]verapamil,[5],1.4 fold
same,change in AUCR of [^11C]erlotinib vs baseline scan,[6]; [15],−18 ± 8%
same,change in VT of [^11C]erlotinib vs baseline scan,[6]; [15],−25 ± 8%
same,increase in brain distribution of (R)-[^11C]verapamil,[7],approximately 4 fold
same,unbound plasma concentration in humans,[8],~30 nM
COc1cc2ncnc(Nc3ccc(F)c(Cl)c3)c2cc1OCCCN1CCOCC1 [gefitinib],pKa,[9],5.4
C[N+](C)(C)C[C@H](O)CC(=O)[O-] [L-carnitine],significant changes in brain [^3H]erlotinib transport on co-perfusion,[10],None
same,significant changes in retina [^3H]erlotinib transport on co-perfusion,[11],None
"CC[N+](CC)(CC)CC [TEA, tetraethylammonium]",significant changes in brain [^3H]erlotinib transport on co-perfusion,[10],None
same,significant changes in retina [^3H]erlotinib transport on co-perfusion,[11],None
C[C@]12CC[C@@H]3c4ccc(OS(=O)(=O)O)cc4CC[C@H]3[C@@H]1CCC2=O [estrone-3-sulfate],significant changes in brain [^3H]erlotinib transport on co-perfusion,[10],None
same,significant changes in retina [^3H]erlotinib transport on co-perfusion,[11],None
C[N+](C)(C)[C@@H](Cc1c[nH]c(=S)[nH]1)C(=O)[O-] [ergothioneine],significant changes in brain [^3H]erlotinib transport on co-perfusion,[10],None
same,significant changes in retina [^3H]erlotinib transport on co-perfusion,[11],None
C#Cc1cccc(Nc2ncnc3cc(OCCOC)c(OCCOC)cc23)c1 [erlotinib],change in Kin of [^3H]erlotinib vs baseline,[1]; [13],+215%
same,change in Kin of [^3H]erlotinib vs baseline,[1]; [14],+340%
same,change in AUCR of [^11C]erlotinib vs baseline scan,[4]; [16],+15 ± 14%
same,change in VT of [^11C]erlotinib vs baseline scan,[4]; [16],+20 ± 16%
same,change in AUCR of [^11C]erlotinib vs baseline scan,[4]; oral erlotinib 300 mg,no statistically significant changes
same,change in VT of [^11C]erlotinib vs baseline scan,[4]; oral erlotinib 300 mg,no statistically significant changes
same,change in AUCR of [^11C]erlotinib vs baseline scan,[4]; oral erlotinib 650 mg,statistically significant increase
same,change in VT of [^11C]erlotinib vs baseline scan,[4]; oral erlotinib 650 mg,statistically significant increase
same,change in AUCR of [^11C]erlotinib vs baseline scan,[6]; [17],−31 ± 15%
same,change in VT of [^11C]erlotinib vs baseline scan,[6]; [17],−41 ± 16%
same,change in AUCR of [^11C]erlotinib vs baseline scan,[6]; [18],−34 ± 9%
same,change in VT of [^11C]erlotinib vs baseline scan,[6]; [18],−44 ± 12%
same,change in AUCR of [^11C]erlotinib vs baseline scan,[6]; [19],−31 ± 21%
same,change in VT of [^11C]erlotinib vs baseline scan,[6]; [19],−42 ± 19%
same,effect of co-infusion of unlabeled erlotinib on Kin of [^3H]erlotinib in the retina,"[2]; mouse, two different doses (10 or 20 μM)",did not decrease
same,adverse events,[12],skin rash
same,unbound plasma concentration in humans,[8],approximately 0.4 μM
COc1cc2c(cc1OC)CN(CCc1ccc(NC(=O)c3cccc4c(=O)c5cccc(OC)c5[nH]c34)cc1)CC2 [elacridar],change in Kin of [^3H]erlotinib vs baseline,[1]; [13],+277%
same,increase in [^3H]erlotinib distribution to the retina (Kin) vs baseline,"[2]; mouse BRB, co-perfusion with 10 μM inhibitor",+114%
